{
  "source": "patent US20190247340A1",
  "about": "“EPILEPSY TREATMENT EMPLOYING KETOGENIC COMPOUNDS WHICH ARREST APOPTOSIS” (priority 2004, published 2019)",
  "system": "CA1 region of hippocampal organotypic cultures",
  "test": "Kainic acid-induced neuronal cell death (experimental status epilepticus), propidium iodide uptake in hippocampal organotypic cultures",
  "assay_type": "cell-based, rat",
  "description": "A seizure-induced neuronal cell death in vitro experimental model of status epilepticus was provided as follows. The neuroprotective potential of (R)-3-hydroxybutyrate sodium salt (BHB) (0.3 mM, 1 mM and 3 mM) was assessed by propidium iodide uptake into hippocampal organotypic cultures administered 1 μM KA for 24 h to induce experimental status epilepticus. Neuronal cell death is already observed at 24 h subsequent to KA-application therefore, it was of no value to administer to the cultures at this time-point. Test compound was, therefore, added to the cultures before significant neuronal cell death occurred.\nHippocampal organotypic slice cultures were prepared according to the Gähwiler roller-tube method (Gähwiler B H (1981) and Gähwiler et al (1997)) from nine rat pups aged between […].\nRat pups were killed by cervical dislocation, their brains rapidly removed and placed in a Petri dish. The meninges were removed from the caudal section of the cortex and then the brain was located with the ventral surface uppermost. Two transverse cuts were made, the first, at the level of the cerebellum to remove the brainstem, and the second, at the level of the optic chiasm to remove the forebrain. The cerebellum, midbrain and hindbrain were lifted upwards from the surrounding cortical tissue leaving one hippocampus embedded within each cortical hemisphere. An incision was made down the midline to separate the two cortical hemispheres. To separate the hippocampus from the surrounding cortical tissue three incisions were made around the hippocampus and then it was rolled out from the underlying tissue. The isolated hippocampus was then placed in a drop of ice-cold Gey's balanced salt solution containing 0.5% D-glucose (GBSS+G). The procedure was then repeated to isolate the remaining hippocampus. The whole procedure was performed using a Swift dissecting microscope and took between 10-15 mins thereby minimizing tissue deterioration.\nThe hippocampi were transferred to a Mcllwain tissue chopper and sectioned into a series of 400 μm thick slices. After sectioning, the hippocampi were placed in ice-cold GBSS+G and the slices gently teased apart. The slices were washed once in GBSS+G and the integrity of the slices checked under a higher magnification. If the slices had any tears, an opaque appearance or the cell body layers were not easily visible, they were discarded. A healthy slice has a yellow-brown colouration without any blackening in the cell body regions.\nTo adhere the hippocampal slice to a coverslip (Agar Scientific, UK), 20 μl of chicken plasma was placed in the middle of the coverslip followed by a hippocampal slice. The plasma was spread thinly over the surface of the coverslip, to ensure the slice was well coated. Then, 30 μl of thrombin (75 units/ml activity) was placed over the slice and mixed thoroughly with the chicken plasma. The plasma-thrombin mixture was left for approximately 60 s until a clot of jelly-like consistency had formed. The coverslip was then placed in a test-tube (Nunclon, UK) which contained 750 μl of pre-warmed culture media (37° C.). Culture media consisted of 50% basal media Earles, 25% Hank's balanced salt solution, 25% heat inactivated horse serum, […] L-glutamine and 0.5% D-glucose. The test tubes were sealed with a screw top lid and placed in a custom made roller-drum (Medical School Workshop, University of Nottingham) at an angle of 5°, rotating at 10 revolutions per hour in a dry incubator at 37° C.\nAfter 48 h in vitro, 500 μl of media was removed and the cultures were incubated in culture media containing a combination of anti-mitotics, which consisted of 5-fluorodeoxyuridine, cytosine-β-D-arabino-furanoside (ARA-C) and uridine each at a concentration of 1 μM. After a further 24 h, 500 μl of media was removed and replaced with 500 μl of new culture media containing no anti-mitotics. […]",
  "note": "Several values for one entry are separate records, joined by “and”; a condition that tells them apart may be missing. Equal entries are not always repeated.",
  "data": [
    {"smiles": "C=C(C)[C@H]1CN[C@H](C(=O)O)[C@H]1CC(=O)O", "note": "[KA, kainic acid, reference compound]", "values": [
      {"measurement": "percentage propidium iodide uptake (mean)", "setting": "KA 1 μM alone for 24 h, then washout, assessed at 7 d, n=12, control cultures 1.81", "result": "6.97±2.03% and 6.97%"},
      {"measurement": "percentage propidium iodide uptake (mean)", "setting": "KA 1 μM alone for 24 h, assessed at 24 h, n=12, control cultures 1.68", "result": "8.89±1.78% and 8.89%"}
    ]},
    {"smiles": "C[C@@H](O)CC(=O)[O-].[Na+]", "note": "[KTX0101, sodium salt of (R)-3-hydroxybutyrate]", "values": [
      {"measurement": "percentage propidium iodide uptake (mean)", "setting": "KTX0101 0.3 mM added 30 mins after KA 1 μM, assessed at 24 h, n=12", "result": 6.48, "unit": "%"},
      {"measurement": "percentage propidium iodide uptake (mean)", "setting": "KTX0101 0.3 mM for 7 d following KA 1 μM for 24 h, assessed at 7 d, n=12", "result": 1.54, "unit": "%"},
      {"measurement": "percentage propidium iodide uptake (mean)", "setting": "KTX0101 0.3 mM for 7 d following KA 1 μM for 24 h, assessed at 7 d, n=12, listed as BHB", "result": "1.54±0.33% and 1.54%"},
      {"measurement": "percentage propidium iodide uptake (mean)", "setting": "KTX0101 1.0 mM added 30 mins after KA 1 μM, assessed at 24 h, n=13", "result": 4.89, "unit": "%"},
      {"measurement": "percentage propidium iodide uptake (mean)", "setting": "KTX0101 1.0 mM for 7 d following KA 1 μM for 24 h, assessed at 7 d, n=13", "result": 1.05, "unit": "%"},
      {"measurement": "percentage propidium iodide uptake (mean)", "setting": "KTX0101 1.0 mM for 7 d following KA 1 μM for 24 h, assessed at 7 d, n=13, listed as BHB", "result": "1.05±0.29% and 1.05%"},
      {"measurement": "percentage propidium iodide uptake (mean)", "setting": "KTX0101 3.0 mM added 30 mins after KA 1 μM, assessed at 24 h, n=13", "result": 4.72, "unit": "%"},
      {"measurement": "percentage propidium iodide uptake (mean)", "setting": "KTX0101 3.0 mM for 7 d following KA 1 μM for 24 h, assessed at 7 d, n=13", "result": 1.25, "unit": "%"},
      {"measurement": "percentage propidium iodide uptake (mean)", "setting": "KTX0101 3.0 mM for 7 d following KA 1 μM for 24 h, assessed at 7 d, n=13, listed as BHB", "result": "1.25±0.21% and 1.25%"}
    ]}
  ]
}
